Inconclusive results and toxic doses are left out. The calls were made as follows: active = survival T/C of 150% or more; inactive = T/C below 125% in these data.
Tested on: P388 leukemia ip, CD2F1 mice, survival T/C
Assay: NCI In Vivo Anticancer Drug Screen. Data for tumor model P388 Leukemia (intraperitoneal) in CD2F1 (CDF1) mice
Conditions: endpoint: median survival time, higher = longer survival
In short: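 Mice carrying the transplanted tumor received test compound or vehicle. Survival was recorded in each group, and the value is the treated-group measurement divided by that of the vehicle-treated control group.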

[1] = dose: 50.0 mg/kg/injection, schedule: Q01DX005 (ip), vehicle: Klucel (hydroxypropylcellulose) (HPC)
[2] = dose: 50.0 mg/kg/injection, schedule: Q01DX009 (ip), vehicle: saline with Tween-80
[3] = dose: 100.0 mg/kg/injection, schedule: Q01DX009 (ip), vehicle: saline with Tween-80
[4] = dose: 50.0 mg/kg/injection, schedule: Q01DX005 (ip), vehicle: saline with Tween-80
[5] = dose: 100.0 mg/kg/injection, schedule: Q01DX005 (ip), vehicle: saline with Tween-80

Measured: T/C

O=C1C(Cl)=C(Nc2cccc3ccccc23)C(=O)C(Cl)=C1Nc1cccc2ccccc12
inactive: [1] 95 % of control | dose: 100.0 mg/kg/injection, schedule: Q01DX005 (ip), vehicle: Klucel (hydroxypropylcellulose) (HPC) 88 % of control | dose: 200.0 mg/kg/injection, schedule: Q01DX005 (ip), vehicle: Klucel (hydroxypropylcellulose) (HPC) 88 % of control

O=C1/C(=C/c2ccc(Cl)cc2)SC(=S)N1C1CC1
inactive: dose: 6.25 mg/kg/injection, schedule: Q01DX005 (ip), vehicle: Klucel (hydroxypropylcellulose) (HPC) 91 % of control | dose: 12.5 mg/kg/injection, schedule: Q01DX005 (ip), vehicle: Klucel (hydroxypropylcellulose) (HPC) 96 % of control | dose: 25.0 mg/kg/injection, schedule: Q01DX005 (ip), vehicle: Klucel (hydroxypropylcellulose) (HPC) 95 % of control | [1] 89 % of control

CC1(C)/C=C/C2=Nc3cc(Br)c(Br)c(Br)c3C23CC(=O)N3/C=C(\Cl)c2nc(Br)[nH]c21 (stereo not given)
inactive: dose: 0.7 mg/kg/injection, schedule: Q01DX005 (ip), vehicle: Klucel (hydroxypropylcellulose) (HPC) 106 % of control | dose: 1.4 mg/kg/injection, schedule: Q01DX005 (ip), vehicle: Klucel (hydroxypropylcellulose) (HPC) 101 % of control | dose: 2.8 mg/kg/injection, schedule: Q01DX005 (ip), vehicle: Klucel (hydroxypropylcellulose) (HPC) 97 % of control | dose: 5.6 mg/kg/injection, schedule: Q01DX005 (ip), vehicle: Klucel (hydroxypropylcellulose) (HPC) 112 % of control

O=c1n(-c2ccccc2)c(=O)n2n1C1C3C4C5C1C5C2C43 (stereo not given)
inactive: dose: 6.25 mg/kg/injection, schedule: Q01DX009 (ip), vehicle: Klucel (hydroxypropylcellulose) (HPC) 100 % of control | dose: 12.5 mg/kg/injection, schedule: Q01DX009 (ip), vehicle: Klucel (hydroxypropylcellulose) (HPC) 87 % of control

C/C(=C\N1CCN(c2ccc(F)cc2)CC1)C(=O)c1ccc(F)cc1
inactive: dose: 50.0 mg/kg/injection, schedule: Q04DX003 (ip), vehicle: saline with Tween-80 101 % of control | dose: 100.0 mg/kg/injection, schedule: Q04DX003 (ip), vehicle: saline with Tween-80 99 % of control | dose: 200.0 mg/kg/injection, schedule: Q04DX003 (ip), vehicle: saline with Tween-80 98 % of control | dose: 400.0 mg/kg/injection, schedule: Q04DX003 (ip), vehicle: saline with Tween-80 117 % of control

COc1cc(OC)c(/C=C\c2nccc3ccccc23)c(OC)c1
inactive: [2] 95 % of control | [3] 96 % of control | dose: 200.0 mg/kg/injection, schedule: Q01DX009 (ip), vehicle: saline with Tween-80 96 % of control

C1=Cc2cc(CN3CCOCC3)ccc2Nc2ccc(CN3CCOCC3)cc21
inactive: dose: 60.0 mg/kg/injection, schedule: Q01DX005 (ip), vehicle: Klucel (hydroxypropylcellulose) (HPC) 96 % of control | dose: 120.0 mg/kg/injection, schedule: Q01DX005 (ip), vehicle: Klucel (hydroxypropylcellulose) (HPC) 94 % of control | dose: 240.0 mg/kg/injection, schedule: Q01DX005 (ip), vehicle: Klucel (hydroxypropylcellulose) (HPC) 99 % of control

COC(=O)c1ncn(CC#N)n1
inactive: dose: 50.0 mg/kg/injection, schedule: Q01DX005 (ip), vehicle: saline 110 % of control | dose: 100.0 mg/kg/injection, schedule: Q01DX005 (ip), vehicle: saline 112 % of control | dose: 200.0 mg/kg/injection, schedule: Q01DX005 (ip), vehicle: saline 105 % of control

Cc1csc(NC(=O)Nc2ccc(F)cc2[N+](=O)[O-])n1
inactive: dose: 25.0 mg/kg/injection, schedule: Q01DX009 (ip), vehicle: Klucel (hydroxypropylcellulose) (HPC) 106 % of control | dose: 50.0 mg/kg/injection, schedule: Q01DX009 (ip), vehicle: Klucel (hydroxypropylcellulose) (HPC) 97 % of control | [2] 105 % of control | dose: 100.0 mg/kg/injection, schedule: Q01DX009 (ip), vehicle: Klucel (hydroxypropylcellulose) (HPC) 100 % of control | [3] 94 % of control | dose: 200.0 mg/kg/injection, schedule: Q01DX009 (ip), vehicle: Klucel (hydroxypropylcellulose) (HPC) 95 % of control

Nc1nc2ncc([N+](=O)[O-])cc2c(=O)[nH]1
inactive: [4] 102 % of control | [5] 100 % of control

O=c1c2ccccc2c(=O)c2c1ccc1[nH]c3c(ccc4c(=O)c5ccccc5c(=O)c43)[nH]c12
inactive: [4] 95 % of control | [5] 107 % of control | dose: 200.0 mg/kg/injection, schedule: Q01DX005 (ip), vehicle: saline with Tween-80 104 % of control

COc1ccc2nc3cc(Cl)ccc3c(NCCCNCCCCNCCCNc3c4ccc(Cl)cc4nc4ccc(OC)nc34)c2n1
inactive: dose: 0.93 mg/kg/injection, schedule: Q01DX005 (ip), vehicle: saline with Tween-80 100 % of control | dose: 1.87 mg/kg/injection, schedule: Q01DX005 (ip), vehicle: saline with Tween-80 106 % of control | dose: 3.75 mg/kg/injection, schedule: Q01DX005 (ip), vehicle: saline with Tween-80 121 % of control

Reference: PubChem BioAssay AID330 (DTP/NCI, 2004)
